Measurements from patent US10905738B2, “Synthetic peptides, prodrugs, pharmaceutical compositions and uses” (Biozeus Desenvolvimento De Produtos Biofarmacêuticos, priority 2018, dated 2021).

What was measured:
[1] = test system: smooth muscle of tracheal rings; experiment: spasmodic contraction of tracheal rings ex vivo (histamine-induced); parameters: species or system Dunkin-Hartley guinea pigs; conditions: for relaxing effect on airway (tracheal ring) smooth muscle, in words: histamine-induced contraction ex vivo; for Effectiveness (Emax) (%): relaxation of tracheal rings contracted by histamine (50 μM); for Effectiveness (Emax) (%) / Potency (pEC50) Molar: mean±SEM; for Potency (pEC50) Molar: tracheal rings contracted by histamine (50 μM), peptides 0.01 to 10 μM
Experimental: The magnitude of the relaxing effect of the peptides was evaluated by means of a model of spasmodic contraction of tracheal rings ex vivo, largely employed to test new bronchodilating agents (see CULLUM, V. A., FARMER, J. B., JACK, D., LEVY, G. P. Salbutamol: a new, selective β-adrenoceptive receptor stimulant. British journal of pharmacology, 35(1): 141-151. 1969; KAO, C. H., CHU, Y. H., WANG, H. W. Effects of lidocaine on rat's isolated tracheal smooth muscle. European Archives of Oto-Rhino-Laryngology, 267(5): 817-820. 2010; SORIANO-URSÚA, M. A., VALENCIA-HERNÁNDEZ, I., ARELLANO-MENDOZA, M. G., CORREA-BASURTO, J., TRUJILLO-FERRARA, J. G. Synthesis, pharmacological and in silico evaluation of 1-(4-dihydroxy-3, 5-dioxa-4-borabycyclo [4.4.0] deca-7,9,11-trien-9-yl)-2-(tert-butylamine) ethanol, a compound designed to act as a β2 adrenoceptor agonist. European journal of medicinal chemistry, 44(7): 2840-2846. 2009).
For each test, Dunkin-Hartley guinea pigs (400-500 g) were euthanized in a CO2 atmosphere; subsequently, the trachea was exposed, removed and sectioned in segments of 1 to 3 cartilaginous tracheal rings. Each segment was transferred to an individual organ bath system containing Krebs nutritive solution (NaCl 118 mM; KCl […]; CaCl2) 2.5 mM; MgSO4 1.2 mM; KH2PO4 1.2 mM; NaHCO324 mM; glucose 11 mM) at 37° C., under constant aeration with a carbogenic mixture (95% of O2 and 5% of CO2). In each system, a stem fixed to the base of the container and another connected to an isometric transducer (GRASS FT-03) made up the support of the fragments. A data digitizing system connected to the isometric transducer allowed the recording of tension variations produced by the contraction of the tracheal rings (PowerLab™ 16/30, LabChart, version 8.1, AD Instruments, Australia). The basal tension was adjusted to 1 g, and subsequently, the contractility of the fragments was evaluated by a stimulus with carbachol (2.5 μM). After 1 h at rest, the basal tension was recovered and the tissues were subjected to contraction induced by histamine (50 μM) followed by exposure to increasing concentrations of the treatments (0.01 to 10 μM; n=8) or the comparator PnTx(19).
Table 1 lists the mean±SEM of the potency values, shown as the negative logarithm of the concentration that reduced the voltage to 50% of the maximum Histamine-induced contraction (pEC50), and efficacy (Emax), calculated from at least 8 independent tests using the sigmoid nonlinear regression equation of the software Graph Prism 5.0 (GraphPad Software, La Jolla, Ca, USA).

[2] = test system: smooth muscle of pulmonary arteries; experiment: relaxation of pulmonary arteries contracted with phenylephrine ex vivo; parameters: species or system male Wistar rats; conditions: n = 9; for pEC50: pulmonary arteries contracted with phenylephrine, peptides 1 nM-10 μM, mean±SEM; for Effectiveness (Emax) (%): relaxation percentage related to maximum phenylephrine contraction
Source text: The ex vivo model of pulmonary artery smooth muscle contraction with phenylephrine is very useful to screen candidate compounds for lung diseases that demand vasodilating effects (ALENCAR, A. K., PEREIRA, S. L., MONTAGNOLI, T. L., MAIA, R. C., KUMMERLE, A. E., LANDGRAF, S. S., CARUSO-NEVES, C., FERRAZ, E. B., TESCH, R., NASCIMENTO, J. H., DE SANT'ANNA, C. M., FRAGA, C. A., BARREIRO, E. J., SUDO, R. T., ZAPATA-SUDO, G. Beneficial effects of a novel agonist of the adenosine A2A receptor on monocrotaline-induced pulmonary hypertension in rats. Br J Pharmacol, 169: 953-62. 2013).
Rats were anesthetized with midazolam and ketamine (2 mg/kg and 100 mg/kg, respectively) via intraperitoneal administration. After infusion of a lethal dose of sodium thiopental via intraperitoneal administration (50 mg/kg), the trunk of the pulmonary artery was carefully removed via sternotomy. The pulmonary artery was carefully dissected and the connective tissue removed. The arteries were connected to a force transductor, positioned in vertical chambers filled with Krebs solution, oxygenated and kept at 37° C.
After a stabilization period of 2 hours at a tension of 1.5 grams, the arteries were exposed to increasing doses of phenylephrine (1 nM-10 μM) in order to obtain maximum smooth muscle contraction and then exposed to increasing doses of selected peptides in the concentrations of 1 nM-10 μM each (n=9). The tension generated by the pulmonary artery was evaluated at intervals of 5 minutes for each dose (ALENCAR, A. K., PEREIRA, S. L., MONTAGNOLI, T. L., MAIA, R. C., KUMMERLE, A. E., LANDGRAF, S. S., CARUSO-NEVES, C., FERRAZ, E. B., TESCH, R., NASCIMENTO, J. H., DE SANT'ANNA, C. M., FRAGA, C. A., BARREIRO, E. J., SUDO, R. T., ZAPATA-SUDO, G. Beneficial effects of a novel agonist of the adenosine A2A receptor on monocrotaline-induced pulmonary hypertension in rats. Br J Pharmacol 169: 953-62. 2013; ALENCAR, A. K., PEREIRA, S. L., DA SILVA, F. E., MENDES, L. V., CUNHA VDO, M., LIMA, L. M., MONTAGNOLI, T. L., CARUSO-NEVES, C., FERRAZ, E. B., TESCH, R., NASCIMENTO, J. H., SANT'ANNA, C. M., FRAGA, C. A., BARREIRO, E. J., SUDO, R. T., ZAPATA-SUDO, G. N-acylhydrazone derivative ameliorates monocrotaline-induced pulmonary hypertension through the modulation of adenosine AA2R activity. International Journal of Cardiology, 173(2): 154-62. 2014).
Potency values are shown as the negative logarithm of the concentration that reduced the voltage to 50% of the maximum phenylephrine-induced contraction (pEC50), and they are expressed as mean±SEM. The maximum contraction achieved in a given artery was considered to be 100% of contraction, and the effectiveness (Emax) was expressed as the relaxation percentage related to this maximum value. The results were calculated from at least 3 independent tests using the sigmoid non-linear regression equation, and the statistical analysis of the concentration curve was done by performing a nonlinear fit of the logarithmic of the agonist versus response. All the above calculations were performed on the software Graph Prism 5.0 (GraphPad Software, La Jolla, Calif., USA). Tension analysis was performed on the software LabChart7 (AD Instruments, Sydney, Australia). As a cutoff to determine biological significance, we considered pulmonary artery relaxation values above 30% as biologically relevant, considered those as active and then calculated the Emax values (SUN, C. K., LIN, Y. C., YUEN, C. M., CHUA, S., CHANG, L. T., SHEU, J. J., LEE, F. Y., FU, M., LEU, S., YIP, H. K. Enhanced protection against pulmonary hypertension with sildenafil and endothelial progenitor cell in rats. International journal of cardiology, 162(1): 45-58. 2012; ALENCAR, A. K., PEREIRA, S. L., DA SILVA, F. E., MENDES, L. V., CUNHA VDO, M., LIMA, L. M., MONTAGNOLI, T. L., CARUSO-NEVES, C., FERRAZ, E. B., TESCH, R., NASCIMENTO, J. H., SANT'ANNA, C. M., FRAGA, C. […]

AQYFWIAWYKLANSK [SEQ ID NO: 4, Ac-Ala-Gln-Tyr-Phe-Trp-Ile-Ala-Trp-Tyr-Lys-Leu-Ala-Asn-Ser-Lys-NH2]
relaxing effect on airway (tracheal ring) smooth muscle, in words [1]: effective
Effectiveness (Emax) (%) [1]: 38.8 ± 3.5%
Potency (pEC50) Molar [1]: 6.8 ± 0.3 Molar

IAWYKGGGGGIAWYK [SEQ ID NO: 28, Ac-Ile-Ala-Trp-Tyr-Lys-Gly-Gly-Gly-Gly-Gly-Ile-Ala-Trp-Tyr-Lys-NH2]
Effectiveness (Emax) (%) [1]: Inactive
Potency (pEC50) Molar [1]: Inactive

IAWYKGGGGGIAWYKGGGGGIAWYK [SEQ ID NO: 30]
Effectiveness (Emax) (%) [1]: Inactive
Potency (pEC50) Molar [1]: Inactive

IAWYKRGGGGGRKYWAI [SEQ ID NO: 29, Ac-Ile-Ala-Trp-Tyr-Lys-Arg-Gly-Gly-Gly-Gly-Gly-Arg-Lys-Tyr-Trp-Ala-Ile-NH2]
Effectiveness (Emax) (%) [1]: Inactive
Potency (pEC50) Molar [1]: Inactive

QYFWIAWYKLANS [SEQ ID NO: 17, Ac-Gln-Tyr-Phe-Trp-Ile-Ala-Trp-Tyr-Lys-Leu-Ala-Asn-Ser-NH2]
Effectiveness (Emax) (%) [1]: 37.1 ± 2.6%
Potency (pEC50) Molar [1]: 6.8 ± 0.3 Molar
pEC50 [2]: 7.8 ± 3.0
Effectiveness (Emax) (%) [2]: 15% ± 2.6

RAYFWIAWYKLANSK [SEQ ID NO: 1, Ac-Arg-Ala-Tyr-Phe-Trp-Ile-Ala-Trp-Tyr-Lys-Leu-Ala-Asn-Ser-Lys-NH2]
relaxing effect on airway (tracheal ring) smooth muscle, in words [1]: effective
Effectiveness (Emax) (%) [1]: 45.7 ± 4.3%
Potency (pEC50) Molar [1]: 7.1 ± 0.4 Molar

RQAFWIAWYKLANSK [SEQ ID NO: 3, Ac-Arg-Gln-Ala-Phe-Trp-Ile-Ala-Trp-Tyr-Lys-Leu-Ala-Asn-Ser-Lys-NH2]
relaxing effect on airway (tracheal ring) smooth muscle, in words [1]: effective
Effectiveness (Emax) (%) [1]: 36.7 ± 1.9%
Potency (pEC50) Molar [1]: 6.8 ± 0.2 Molar

RQYFWIAW [SEQ ID NO: 22, Ac-Arg-Gln-Tyr-Phe-Trp-Ile-Ala-Trp-NH2]
Effectiveness (Emax) (%) [1]: 35.2 ± 1.8%
Potency (pEC50) Molar [1]: 7.0 ± 0.2 Molar
pEC50 [2]: 5.8 ± 3.1
Effectiveness (Emax) (%) [2]: 8% ± 2.83

RQYFWIAWY [SEQ ID NO: 20, Ac-Arg-Gln-Tyr-Phe-Trp-Ile-Ala-Trp-Tyr-NH2]
Effectiveness (Emax) (%) [1]: 37.8 ± 2.9%
Potency (pEC50) Molar [1]: 7.1 ± 0.3 Molar
pEC50 [2]: 6.1 ± 6.9
Effectiveness (Emax) (%) [2]: 6% ± 7.64

RQYFWIAWYKIASNK [SEQ ID NO: 6, Ac-Arg-Gln-Tyr-Phe-Trp-Ile-Ala-Trp-Tyr-Lys-Ile-Ala-Ser-Asn-Lys-NH2]
Effectiveness (Emax) (%) [1]: 25.3 ± 1.7%
Potency (pEC50) Molar [1]: 7.0 ± 0.3 Molar

RQYFWIAWYKLANSA [SEQ ID NO: 2, Ac-Arg-Gln-Tyr-Phe-Trp-Ile-Ala-Trp-Tyr-Lys-Leu-Ala-Asn-Ser-Ala-NH2]
relaxing effect on airway (tracheal ring) smooth muscle, in words [1]: effective
Effectiveness (Emax) (%) [1]: 40.4 ± 2.6%
Potency (pEC50) Molar [1]: 6.9 ± 0.2 Molar

WIAWYKL [SEQ ID NO: 23, Ac-Trp-Ile-Ala-Trp-Tyr-Lys-Leu-NH2]
Effectiveness (Emax) (%) [1]: 35.5 ± 2.3%
Potency (pEC50) Molar [1]: 7.5 ± 0.3 Molar
pEC50 [2]: 6.1 ± 6.2
Effectiveness (Emax) (%) [2]: 4% ± 6.07

YFWIAWYKLAN [SEQ ID NO: 18, Ac-Tyr-Phe-Trp-Ile-Ala-Trp-Tyr-Lys-Leu-Ala-Asn-NH2]
Effectiveness (Emax) (%) [1]: 38.0 ± 2.3%
Potency (pEC50) Molar [1]: 7.2 ± 0.3 Molar
pEC50 [2]: 6.5 ± 9.3
Effectiveness (Emax) (%) [2]: 18% ± 9.12
